This test deals with recombinant soluble dimeric mouse H-2D^b:Ig (DimerX) protein (Mus musculus, UniProt P01899). Kind of test: biochemical. The class given is binding.

Molecules are shown by their SMILES.

recombinant soluble dimeric mouse H-2D^b:Ig (DimerX) protein, sequence (P01899 25-298 limits assumed): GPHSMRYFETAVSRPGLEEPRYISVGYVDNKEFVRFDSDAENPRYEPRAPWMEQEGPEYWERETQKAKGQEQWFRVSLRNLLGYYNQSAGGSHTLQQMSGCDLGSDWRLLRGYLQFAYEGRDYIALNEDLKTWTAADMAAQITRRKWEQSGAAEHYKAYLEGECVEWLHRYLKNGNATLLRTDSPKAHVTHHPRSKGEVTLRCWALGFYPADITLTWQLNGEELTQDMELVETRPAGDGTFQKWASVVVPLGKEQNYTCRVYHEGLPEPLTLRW

As to `CC[C@H](C)[C@H](NC(=O)CNC(=O)[C@@H](NC(=O)[C@H](Cc1ccccc1)NC(=O)[C@H](CCCCN)NC(=O)[C@H](CO)NC(=O)[C@H](CC(N)=O)NC(=O)[C@H](C)NC(=O)[C@H](CCCCN)NC(=O)[C@@H](NC(=O)[C@H](Cc1ccc(O)cc1)NC(=O)[C@@H](N)CCC(N)=O)[C@@H](C)CC)[C@@H](C)CC)C(=O)N[C@H](C(=O)N[C@@H](CCC(=O)O)C(=O)O)[C@@H](C)O` [TT830-843], the Kd amounted to 344 ± 60 nM. Besides, the kon (pH 7.2, read-out: association rate constant ka) was found to be 900000 M⁻¹ s⁻¹. Also, where the note is “pH 7.2, read-out: dissociation rate constant kd”, the koff was found to be 0.31 ± 0.02 s⁻¹.

The values above are taken from article PMC8275407 (BioMed Research International, 2021).
